# Source: patent publication US20120238915A1, “SOUND WAVE TREATMENT PLATFORM AND SOUND WAVE TREATMENT METHOD” (priority 2011, published 2012)
# Tests used:
# [1] = test system: metastatic pancreatic cancer to liver; experiment: Example 1: patient treated with non-focused sound waves with Bleomycin; type: in vivo, human; conditions: 30 mg Bleomycin + sound waves 0.3 MHz
# Method: person one was diagnosed with metastatic pancreatic cancer to liver. Treatment history was as follows: Gemcitabine, Tykerb, Xeloda, and 6000R radiation therapy. Despite multiple treatments, patient's condition continues to worsen with increased abdominal pain. The patient was taking pain medication with constipation.
# The patient was treated according to the present invention with 30 mg Bleomycin (Frequency: 0.3 MHz; power intensity: less than 2 W/cm^2; duration: less than 30 minutes). […] Their tumor marker CA19-9 decreased from 1465 to 406 in 9 days after the treatment. They remained pain free for 150 days after the treatment till their death clue to organ failure.
# [2] = test system: metastatic pancreatic cancer to liver; experiment: Example 4: patient treated with non-focused sound waves with Bleomycin; type: in vivo, human; conditions: 30 mg Bleomycin + sound waves 0.3 MHz
# Method: person three was diagnosed with metastatic pancreatic cancer to liver and has been treated with Palliative bypass operation. No chemotherapy history. They were in very terminal stage with severe jaundice and great pain. They used Fetanyl patch and additional pain medication. The patient was treated according to the present invention with 30 mg Bleomycin (Frequency: 0.3 MHz; power intensity: less than 2 W/cm^2; duration: less than 30 minutes). […] They remained pain free for 4 days till their death due to hepatic failure.
# metastatic breast cancer = experiment: Example 6: patient treated with non-focused sound waves with Bleomycin; type: in vivo, human; conditions: 30 mg Bleomycin + sound waves 0.3 MHz
# Method: person two was diagnosed with metastatic breast cancer, and complained of three weeks left shoulder pain.
# (§1) The patient was treated according to the present invention with 30 mg Bleomycin (Frequency: 0.3 MHz; power intensity: less than 2 W/cm^2; duration: less than 30 minutes).
# [3] = test system: metastatic oral cancer to the face; experiment: Example 7: patient treated with non-focused sound waves with Bleomycin; type: in vivo, human; conditions: 30 mg Bleomycin + sound waves 0.3 MHz
# Method: person six was diagnosed with metastatic oral cancer to the face, and complained of severe facial pain. They have been treated with multiple surgery and chemoradiation. They presented with a large area of metastatic facial mass, and their right eye was bulging due to tumor infiltration.
# as §1
# terminal hepatoma = experiment: Example 8: patient treated with non-focused sound waves with Bleomycin; type: in vivo, human; conditions: 30 mg Bleomycin + sound waves 0.3 MHz
# Method: person four was diagnosed with terminal hepatoma and liver pain.
# as §1
# [4] = test system: recurrent breast cancer and metastasis to the liver; experiment: Example 9: patient treated with non-focused sound waves with Bleomycin; type: in vivo, human
# Method: person two was diagnosed with recurrent breast cancer and metastasis to the liver. They had multiple chemotherapy and target medicine treatment.
# The patient was treated twice (one week apart) according to the present invention with 30 mg Bleomycin each time (Frequency: 0.3 MHz; power intensity: less than 2 W/cm^2; duration: less than 30 minutes (each time)). […] Their right upper quadrant pain resolved and remained pain free over 18 months till last follow up.
# [5] = test system: terminal metastatic ovarian cancer; experiment: Example 10: patient treated with non-focused sound waves with Bleomycin; type: in vivo, human
# Method: person five was diagnosed with terminal metastatic ovarian cancer with colostomy and complained of abdominal pain.
# The patient was treated twice (one week apart) according to the present invention combined with 30 mg Bleomycin each time (Frequency: 0.3 MHz; power intensity: less than 2 W/cm^2; duration: less than 30 minutes (each time)). […] They remained pain free for over 8 months till their death due to sepsis.
# [6] = test system: recurrent pancreatic cancer; conditions: human, in vivo
# [7] = test system: non-operable pancreatic cancer
# [8] = test system: metastatic pancreatic cancer to liver; experiment: Example 3: patient treated with non-focused sound waves with Bleomycin; conditions: 30 mg Bleomycin + sound waves 0.3 MHz
# [9] = person two, 30 mg Bleomycin + sound waves 0.3 MHz
compound,measurement,setting,value
Bleomycin,tumor marker CA19-9,"[1]; decreased from 1465, in 9 days after the treatment",406
same,constipation symptom,"[1]; person one, after the treatment",relieved
same,pain medication use after treatment,"[1]; person one, one treatment",has not taken any pain medication since the treatment
same,side effect,"[1]; person one, one treatment",no side effect was observed
same,patient's pain,"[1]; person one, one treatment, <2 W/cm^2, <30 min",dissolved
same,remained pain free after the treatment,[1]; till death due to organ failure,150 days
same,pain medication use after treatment,[2],without using anymore pain medication
same,side effect,[2]; person three,no side effect was observed
same,time in which pain vanished,"[2]; person three, one treatment",6 h
same,pain,"[2]; person three, one treatment, <2 W/cm^2, <30 min",totally vanished
same,remained pain free,[2]; till death due to hepatic failure,4 days
same,pain free duration,metastatic breast cancer,over seven months
same,side effect,"metastatic breast cancer; person two, one treatment, <2 W/cm^2, <30 min",no side effect was observed
same,shoulder pain,metastatic breast cancer; till death due to brain metastasis,did not have shoulder pain
same,facial tumor size,[3],decreased in size
same,right eye (bulging due to tumor infiltration),[3],less bulging and could rotate
same,side effect,[3]; person six,no side effect
same,facial pain,"[3]; person six, one treatment, <2 W/cm^2, <30 min",totally resolved
same,remained pain free,[3]; till last follow up,over 33 days
same,pain free till death,terminal hepatoma,14 days
same,side effect,terminal hepatoma; person four,no side effect
same,right quadrant pain,"terminal hepatoma; person four, one treatment, <2 W/cm^2, <30 min",vanished
same,right upper quadrant pain,[4]; 30 mg Bleomycin twice + sound waves 0.3 MHz,resolved
same,"liver tumor diameter (imaging study), second tumor","[4]; decreased from 7 cm, after the first treatment",4 cm
same,"liver tumor diameter (imaging study), first tumor","[4]; decreased from 10 cm, after the first treatment",7 cm
same,side effect,[4]; [9],no side effect
same,liver tumors size,"[4]; person two, after the first of two treatments one week apart, 30 mg Bleomycin each + sound waves 0.3 MHz, <2 W/cm^2, <30 min",significantly decreased in size
same,follow up imaging studies,"[4]; several follow up imaging studies, 30 mg Bleomycin twice + sound waves",stable liver metastasis
same,remained pain free,"[4]; till last follow up, 30 mg Bleomycin twice + sound waves",over 18 months
same,side effect,"[5]; person five, 30 mg Bleomycin + sound waves 0.3 MHz",no side effect
same,abdominal pain,"[5]; person five, after the first of two treatments one week apart, 30 mg Bleomycin each + sound waves 0.3 MHz, <2 W/cm^2, <30 min",resolved
same,remained pain free,"[5]; till death due to sepsis, 30 mg Bleomycin twice + sound waves",over 8 months
same,body weight,[6],increased
same,pain medication use after treatment,[6],has not taken any pain medication since the first treatment till their death
same,pain scale,[6],0-1
same,physical activity,[6],returned to near normal
same,remained pain free after the treatment,[6],170 days
same,side effect,[6],no side effect was observed
same,survival after first diagnosis,[6],lived two years after their first diagnosis
same,jaundice,[7]; after Bleomycin + sound wave treatments and weekly Gemcitabine,did not have jaundice
same,blood sugar,"[7]; insulin dependent diabetic patient, after the treatment, remained till death",returned to normal level without using insulin
same,side effect,[7]; [9],no side effect was observed
same,pancreatic region pain,"[7]; person two, after the first treatment, 30 mg Bleomycin + sound waves 0.3 MHz, <2 W/cm^2, <30 min",resolved
same,remained pain free after the treatment,"[7]; till death, 30 mg Bleomycin three times (third followed by 1000 mg Gemcitabine) + sound waves",183 days
same,pain free,[8],32 days
same,side effect,[8]; person seven,no side effect was observed
same,patient's pain,"[8]; person seven, one treatment, <2 W/cm^2, <30 min",totally dissolved
same,pain medication use after treatment,[8]; until death due to sepsis,without using any pain medication
Nc1ccn([C@@H]2O[C@H](CO)[C@@H](O)C2(F)F)c(=O)n1 [Gemcitabine],tumor growth in diameter,"[7]; during at least four months of weekly Gemcitabine, after Bleomycin + sound wave treatments",1.4 cm
